From article PMC12196213, “New Insights into the Anticancer Effects and Toxicogenomic Safety of Two β-Lapachone Derivatives” (Pharmaceuticals, 2025)

Tests used:
[1] = tested on: cancer cells (HeLa, HCT-116, HepG2, MDA-MB-231); assay: MTT cytotoxicity assay, cancer cell panel (range over lines); format: cell-based; details: Homo sapiens, 72 h
Description: To assess the cytotoxicity of the compounds, the MTT [3-(4,5-dimethylthiazol-2-yl)-2,5-diphenyltetrazolium bromide] assay was employed. The cells (2 × 10^5/mL) were incubated with the substances at concentrations ranging from 0.78 to 25 µg/mL. β-lap was used as a positive control. After 24, 48, or 72 h of incubation, MTT was added at a concentration of 5 mg/mL. Cell viability in different treatments was compared to the negative control using the following formula: Cell viability%=mean absorbance of treated samples/mean absorbance of negative control×100 The IC50 (the concentration that inhibits 50% of cell growth compared to the negative control) was calculated using nonlinear regression in GraphPad Prism 8.0 for Windows (GraphPad Demo Software, San Diego, CA, USA). Experiments were performed in triplicate and in two independent experiments. The protocol is also described in other previous publications.

ABL1 = ABL1 (Homo sapiens, UniProt P00519); assay: ADP-Glo kinase assay; format: biochemical; details: 10 µM ATP, read-out: % of residual activity; for remaining activity at 1 µM: ABL1, 1 µM compound; for remaining activity at 10 µM: ABL1, 10 µM compound
Sequence of ABL1 (P00519 whole entry): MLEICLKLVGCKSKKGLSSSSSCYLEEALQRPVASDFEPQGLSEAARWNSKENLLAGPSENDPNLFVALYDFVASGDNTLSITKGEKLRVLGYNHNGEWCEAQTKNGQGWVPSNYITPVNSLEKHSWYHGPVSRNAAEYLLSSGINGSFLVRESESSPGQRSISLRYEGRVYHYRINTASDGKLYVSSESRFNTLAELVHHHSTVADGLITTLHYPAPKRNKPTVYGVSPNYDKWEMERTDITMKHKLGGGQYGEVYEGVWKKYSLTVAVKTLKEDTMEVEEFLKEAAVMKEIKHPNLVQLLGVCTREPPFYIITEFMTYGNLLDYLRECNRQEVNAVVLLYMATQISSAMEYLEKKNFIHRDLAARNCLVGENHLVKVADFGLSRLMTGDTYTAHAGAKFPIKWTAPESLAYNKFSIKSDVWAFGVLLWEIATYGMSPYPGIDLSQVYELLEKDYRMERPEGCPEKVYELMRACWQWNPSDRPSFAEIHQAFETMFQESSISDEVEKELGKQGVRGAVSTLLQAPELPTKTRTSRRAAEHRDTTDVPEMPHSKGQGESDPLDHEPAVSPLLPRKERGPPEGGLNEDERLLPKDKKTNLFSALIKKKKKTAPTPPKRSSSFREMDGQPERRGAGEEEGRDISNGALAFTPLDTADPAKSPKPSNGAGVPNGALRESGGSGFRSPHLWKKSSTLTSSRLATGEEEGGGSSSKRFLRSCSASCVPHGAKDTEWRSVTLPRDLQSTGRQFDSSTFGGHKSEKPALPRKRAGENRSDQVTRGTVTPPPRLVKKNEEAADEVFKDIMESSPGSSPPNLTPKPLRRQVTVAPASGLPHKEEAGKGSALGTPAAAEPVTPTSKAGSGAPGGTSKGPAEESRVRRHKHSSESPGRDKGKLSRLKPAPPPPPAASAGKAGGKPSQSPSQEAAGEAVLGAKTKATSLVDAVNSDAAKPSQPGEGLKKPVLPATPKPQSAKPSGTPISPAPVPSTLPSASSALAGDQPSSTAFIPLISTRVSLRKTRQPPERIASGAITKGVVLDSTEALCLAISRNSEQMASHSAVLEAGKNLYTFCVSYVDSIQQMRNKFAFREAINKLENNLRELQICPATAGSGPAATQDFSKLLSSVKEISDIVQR
Description: (§1) Kinase enzymatic activities of CDK5/p25, CDK9/CyclinT, HASPIN, PIM1, GSK3β, CK1ε, ABL1, and JAK3 were assayed using the luminescent ADP detection assay described in Zegzouti et al. (ADP-GloTM assay kit provided by Promega, Madison, WI, USA). Briefly, the reactions were carried out in appropriate kinase buffer, with either protein or peptide as substrate in the presence of 10 µM ATP. Assay conditions used for each kinase tested here are described in Ibrahim et al.. The Envision (PerkinElmer, Waltham, MA, USA) microplate luminometer was used to measure the transmitted signal expressed in Relative Light Unit (RLU). In order to determine the half maximal inhibitory concentration (IC50), the assays were performed in duplicate in the absence or presence of increasing doses of the tested compounds. Kinase activities are expressed in % of maximal activity, i.e., measured in the absence of inhibitor but with a similar dose of DMSO (solvent of the tested compounds).

CDK5/p25 = CDK5/p25 (Homo sapiens, UniProt Q00535); assay: ADP-Glo kinase assay; format: biochemical; details: 10 µM ATP, read-out: % of residual activity; for remaining activity at 1 µM: CDK5/p25, 1 µM compound; for remaining activity at 10 µM: CDK5/p25, 10 µM compound
Sequence of CDK5/p25 (Q00535 whole entry): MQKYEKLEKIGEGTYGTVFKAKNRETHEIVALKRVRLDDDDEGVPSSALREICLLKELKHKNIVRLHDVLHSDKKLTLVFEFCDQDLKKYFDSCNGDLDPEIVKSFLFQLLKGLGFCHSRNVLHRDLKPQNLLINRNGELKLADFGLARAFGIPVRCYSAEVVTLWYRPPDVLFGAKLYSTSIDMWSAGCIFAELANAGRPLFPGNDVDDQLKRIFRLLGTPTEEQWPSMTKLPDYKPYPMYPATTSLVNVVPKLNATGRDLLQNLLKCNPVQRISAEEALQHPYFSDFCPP
Sequence of CDK5/p25 (Q15078 99-307 partner limits assumed): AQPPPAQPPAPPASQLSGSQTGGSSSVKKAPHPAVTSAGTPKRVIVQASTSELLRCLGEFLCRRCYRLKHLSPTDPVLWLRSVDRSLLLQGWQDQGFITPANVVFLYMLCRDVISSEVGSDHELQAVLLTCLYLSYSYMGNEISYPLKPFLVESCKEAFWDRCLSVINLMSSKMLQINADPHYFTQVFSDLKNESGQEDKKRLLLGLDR
Description: as §1

CDK9/CyclinT = CDK9/CyclinT (Homo sapiens, UniProt P50750); assay: ADP-Glo kinase assay; format: biochemical; details: 10 µM ATP, read-out: % of residual activity; for remaining activity at 1 µM: 1 µM compound; for remaining activity at 10 µM: 10 µM compound
Sequence of CDK9/CyclinT (P50750 whole entry): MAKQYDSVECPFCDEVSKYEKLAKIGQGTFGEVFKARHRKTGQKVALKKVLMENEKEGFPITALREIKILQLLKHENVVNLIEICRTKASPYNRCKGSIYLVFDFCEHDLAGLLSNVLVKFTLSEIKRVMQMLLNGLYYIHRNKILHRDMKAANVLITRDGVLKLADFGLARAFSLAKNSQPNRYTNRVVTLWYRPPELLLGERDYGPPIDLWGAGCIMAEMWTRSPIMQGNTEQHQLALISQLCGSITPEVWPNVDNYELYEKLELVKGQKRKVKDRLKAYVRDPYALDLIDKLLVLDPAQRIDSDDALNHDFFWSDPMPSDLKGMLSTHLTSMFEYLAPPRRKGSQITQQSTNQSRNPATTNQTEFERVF
Sequence of CDK9/CyclinT (O60563 whole entry partner): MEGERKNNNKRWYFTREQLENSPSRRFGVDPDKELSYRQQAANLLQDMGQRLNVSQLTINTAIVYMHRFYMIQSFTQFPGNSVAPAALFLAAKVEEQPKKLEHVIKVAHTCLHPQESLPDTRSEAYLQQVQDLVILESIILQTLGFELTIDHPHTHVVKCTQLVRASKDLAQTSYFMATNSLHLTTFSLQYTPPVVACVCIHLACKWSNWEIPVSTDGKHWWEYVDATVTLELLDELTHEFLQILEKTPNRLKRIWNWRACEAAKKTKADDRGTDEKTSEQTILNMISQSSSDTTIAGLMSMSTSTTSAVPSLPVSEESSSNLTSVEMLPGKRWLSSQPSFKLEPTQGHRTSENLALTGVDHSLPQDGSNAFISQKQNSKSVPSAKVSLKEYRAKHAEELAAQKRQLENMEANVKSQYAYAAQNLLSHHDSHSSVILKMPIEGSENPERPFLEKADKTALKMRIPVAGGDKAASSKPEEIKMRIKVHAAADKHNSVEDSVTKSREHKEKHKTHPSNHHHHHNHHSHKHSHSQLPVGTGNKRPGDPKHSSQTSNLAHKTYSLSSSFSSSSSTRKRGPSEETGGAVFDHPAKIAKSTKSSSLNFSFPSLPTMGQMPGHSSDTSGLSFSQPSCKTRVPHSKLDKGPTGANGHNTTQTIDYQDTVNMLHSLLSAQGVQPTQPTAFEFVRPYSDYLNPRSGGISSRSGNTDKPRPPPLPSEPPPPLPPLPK
Description: as §1

CK1ε = CK1ε (Homo sapiens, UniProt P49674); assay: ADP-Glo kinase assay; format: biochemical; details: 10 µM ATP, read-out: % of residual activity; for remaining activity at 1 µM: 1 µM compound; for remaining activity at 10 µM: 10 µM compound
Sequence of CK1ε (P49674 whole entry): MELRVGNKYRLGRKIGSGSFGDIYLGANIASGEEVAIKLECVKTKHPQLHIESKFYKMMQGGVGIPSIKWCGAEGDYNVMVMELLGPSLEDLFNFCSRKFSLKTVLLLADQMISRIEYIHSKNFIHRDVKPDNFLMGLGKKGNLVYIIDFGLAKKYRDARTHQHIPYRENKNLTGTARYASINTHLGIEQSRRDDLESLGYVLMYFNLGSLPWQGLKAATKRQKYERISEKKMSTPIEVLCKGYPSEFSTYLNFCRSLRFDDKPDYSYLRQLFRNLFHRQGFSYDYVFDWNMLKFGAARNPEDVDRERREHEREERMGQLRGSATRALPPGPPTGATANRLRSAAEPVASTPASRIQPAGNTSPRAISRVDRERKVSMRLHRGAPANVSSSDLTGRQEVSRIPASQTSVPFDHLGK
Description: as §1

GSK3β = GSK3β (Homo sapiens, UniProt P49841); assay: ADP-Glo kinase assay; format: biochemical; details: for remaining activity at 1 µM: 1 µM compound; for remaining activity at 1 µM / remaining activity at 10 µM: read-out: % of residual activity; for remaining activity at 10 µM: 10 µM compound
Sequence of GSK3β (P49841 whole entry): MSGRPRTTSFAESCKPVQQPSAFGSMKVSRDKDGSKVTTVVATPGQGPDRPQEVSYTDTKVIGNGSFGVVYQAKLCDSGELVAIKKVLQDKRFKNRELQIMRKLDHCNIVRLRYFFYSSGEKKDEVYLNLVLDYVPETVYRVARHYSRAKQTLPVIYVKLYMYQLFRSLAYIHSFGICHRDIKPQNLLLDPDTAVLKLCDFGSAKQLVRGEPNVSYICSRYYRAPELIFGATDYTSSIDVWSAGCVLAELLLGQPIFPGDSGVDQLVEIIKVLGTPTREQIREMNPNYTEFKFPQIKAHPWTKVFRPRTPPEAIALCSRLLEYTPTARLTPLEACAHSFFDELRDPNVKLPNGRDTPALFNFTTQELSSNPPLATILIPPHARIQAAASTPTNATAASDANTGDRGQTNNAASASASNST
Description: as §1

HASPIN = biological target: T1, HASPIN (Homo sapiens, UniProt Q8TF76); assay: ADP-Glo kinase assay; format: biochemical; details: 10 µM ATP, read-out: % of residual activity; for remaining activity at 1 µM: 1 µM compound; for remaining activity at 10 µM: 10 µM compound
T1 sequence (Q8TF76 470-798 limits assumed): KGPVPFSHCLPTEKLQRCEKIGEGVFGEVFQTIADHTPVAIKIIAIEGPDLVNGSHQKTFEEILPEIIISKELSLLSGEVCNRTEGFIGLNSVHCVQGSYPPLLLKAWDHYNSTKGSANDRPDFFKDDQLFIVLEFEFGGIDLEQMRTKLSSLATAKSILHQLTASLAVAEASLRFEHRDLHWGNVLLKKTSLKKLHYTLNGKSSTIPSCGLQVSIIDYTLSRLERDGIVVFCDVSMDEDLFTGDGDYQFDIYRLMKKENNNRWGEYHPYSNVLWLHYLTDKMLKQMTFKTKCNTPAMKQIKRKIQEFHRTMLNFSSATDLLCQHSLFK
Description: as §1

JAK3 = biological target: T2, JAK3 (Homo sapiens, UniProt P52333); assay: ADP-Glo kinase assay; format: biochemical; details: for remaining activity at 1 µM: JAK3, 1 µM compound; for remaining activity at 1 µM / remaining activity at 10 µM: 10 µM ATP, read-out: % of residual activity; for remaining activity at 10 µM: JAK3, 10 µM compound
T2 sequence (P52333 1-1124): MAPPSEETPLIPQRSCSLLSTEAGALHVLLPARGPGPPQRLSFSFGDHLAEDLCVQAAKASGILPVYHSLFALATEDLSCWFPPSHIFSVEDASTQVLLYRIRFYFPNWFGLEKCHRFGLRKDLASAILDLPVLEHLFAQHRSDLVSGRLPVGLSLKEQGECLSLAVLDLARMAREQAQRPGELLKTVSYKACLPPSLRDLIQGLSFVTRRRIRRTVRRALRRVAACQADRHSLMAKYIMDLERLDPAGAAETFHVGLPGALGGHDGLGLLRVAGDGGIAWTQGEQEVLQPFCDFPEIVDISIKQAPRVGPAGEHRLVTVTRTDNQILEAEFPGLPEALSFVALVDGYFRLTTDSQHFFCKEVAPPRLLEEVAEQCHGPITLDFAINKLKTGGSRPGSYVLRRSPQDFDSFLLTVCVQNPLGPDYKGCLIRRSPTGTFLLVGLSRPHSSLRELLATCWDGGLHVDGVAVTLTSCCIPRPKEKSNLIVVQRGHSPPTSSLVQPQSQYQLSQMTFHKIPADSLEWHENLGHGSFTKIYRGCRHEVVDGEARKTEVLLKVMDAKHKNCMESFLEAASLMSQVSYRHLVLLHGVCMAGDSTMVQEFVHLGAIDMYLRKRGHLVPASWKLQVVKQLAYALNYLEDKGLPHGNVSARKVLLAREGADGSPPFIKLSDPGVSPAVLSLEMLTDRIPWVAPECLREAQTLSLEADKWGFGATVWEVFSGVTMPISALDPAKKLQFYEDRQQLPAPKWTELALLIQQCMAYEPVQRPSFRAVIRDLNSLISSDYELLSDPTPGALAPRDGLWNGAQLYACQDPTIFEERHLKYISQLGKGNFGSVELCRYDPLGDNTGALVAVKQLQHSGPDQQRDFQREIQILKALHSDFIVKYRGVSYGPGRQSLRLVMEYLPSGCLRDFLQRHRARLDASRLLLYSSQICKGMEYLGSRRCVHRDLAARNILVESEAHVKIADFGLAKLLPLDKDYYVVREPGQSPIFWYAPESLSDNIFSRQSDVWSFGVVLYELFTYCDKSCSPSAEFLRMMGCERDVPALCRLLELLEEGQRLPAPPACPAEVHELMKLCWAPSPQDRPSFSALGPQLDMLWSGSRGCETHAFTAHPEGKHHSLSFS
Description: as §1

PIM1 = PIM1 (Homo sapiens, UniProt P11309); assay: ADP-Glo kinase assay; format: biochemical; details: for remaining activity at 1 µM: PIM1, 1 µM compound; for remaining activity at 1 µM / remaining activity at 10 µM: 10 µM ATP, read-out: % of residual activity; for remaining activity at 10 µM: PIM1, 10 µM compound
Sequence of PIM1 (P11309 whole entry): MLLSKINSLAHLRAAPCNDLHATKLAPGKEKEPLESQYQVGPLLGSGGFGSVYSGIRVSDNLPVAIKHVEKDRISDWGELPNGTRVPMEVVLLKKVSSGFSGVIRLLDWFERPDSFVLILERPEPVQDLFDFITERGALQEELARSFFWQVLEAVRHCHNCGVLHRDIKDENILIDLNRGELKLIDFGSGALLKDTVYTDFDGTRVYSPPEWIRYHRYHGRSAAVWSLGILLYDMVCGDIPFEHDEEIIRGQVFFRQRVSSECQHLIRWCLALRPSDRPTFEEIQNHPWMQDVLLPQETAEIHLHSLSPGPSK
Description: as §1

[2] = JAK3, dose–response curve, Figure 5
[3] = PIM1, dose–response curve, Figure 5

Row | Structure (SMILES) | IC50 [1] [µM] | remaining activity at 1 µM (ABL1) [%] | remaining activity at 10 µM (ABL1) [%] | remaining activity at 1 µM (CDK5/p25) [%] | remaining activity at 10 µM (CDK5/p25) [%] | remaining activity at 1 µM (CDK9/CyclinT) [%] | remaining activity at 10 µM (CDK9/CyclinT) [%] | remaining activity at 1 µM (CK1ε) [%] | remaining activity at 10 µM (CK1ε) [%] | remaining activity at 1 µM (GSK3β; 10 µM ATP) [%] | IC50 (GSK3β; 10 µM ATP) [µM] | remaining activity at 10 µM (GSK3β; 10 µM ATP) [%] | remaining activity at 1 µM (HASPIN) [%] | remaining activity at 10 µM (HASPIN) [%] | remaining activity at 1 µM (JAK3) [%] | remaining activity at 10 µM (JAK3) [%] | IC50 (JAK3; [2]) [µM] | remaining activity at 1 µM (PIM1) [%] | IC50 (PIM1; PIM1, 10 µM ATP) [µM] | remaining activity at 10 µM (PIM1) [%] | other results
1 | CC1(C)CCC2=C(O1)c1ccccc1/C(=N/NC(=S)Nc1ccc([N+](=O)[O-])cc1)C2=O [BV3, 2-(2,2-dimethyl-5-oxo-3,4-dihydro-2H-benzo[h]chromen-6(5H)-ylidene)-N-(4nitrophen-yl)thio-carbohydrazide] | 2.81 to 20.6 | 52 | 35 | ≥ 100 | 44 | ≥ 100 | 67 | ≥ 100 | 98 | 58 | 1 | 7 | ≥ 100 | ≥ 100 | -3 | -9 | 0.115 | ≥ 100 | 4.15 | 18 | IC50 (GSK3β; dose–response curve, Figure 5): 1 µM; IC50 (PIM1; [3]): 4.16 µM
2 | Cc1ccc(NC(=S)N/N=C2\C(=O)C3=C(OC(C)(C)CC3)c3ccccc32)cc1 [BV5, 2-(2,2-dimethyl-5-oxo-3,4-dihydro-2H-benzo[h]chromen-6(5H)-ylidene)-N-(p-tolyl)-thiocarbohydrazide] | 15.5 to 36.9 | 83 | 56 | ≥ 100 | 62 | ≥ 100 | 78 | 98 | 86 | 64 | 4.91 | 24 | ≥ 100 | ≥ 100 | 64 | 4 | 0.522 | 94 | 8.74 | 42 | IC50 (JAK3; JAK3, 10 µM ATP): 0.52 µM; IC50 (PIM1; [3]): 8.74 µM
3 | CC1(C)CCC2=C(O1)c1ccccc1C(=O)C2=O [β-lap, β-Lapachone] | 0.12 to 3.38 | 83 | 81 | 74 | 88 | ≥ 100 | 72 | ≥ 100 | 94 | 67 | – | 43 | ≥ 100 | 91 | 65 | 69 | – | 56 | – | 42 | –
